Source: doi:10.1101/2020.09.15.275891v2 (biorxiv, 2020)

Assays:
in vitro = settings: human, caco-2 cells
mature MHV M^pro = mature MHV M^pro (Murine hepatitis virus strain A59, UniProt P0C6X9); test: fluorogenic peptide cleavage; format: biochemical
mature SARSCoV2 M^pro = mature SARSCoV2 M^pro (Severe acute respiratory syndrome coronavirus 2, UniProt P0DTD1); test: biochemical

Sequence of mature MHV M^pro (P0C6X9 3334-3635): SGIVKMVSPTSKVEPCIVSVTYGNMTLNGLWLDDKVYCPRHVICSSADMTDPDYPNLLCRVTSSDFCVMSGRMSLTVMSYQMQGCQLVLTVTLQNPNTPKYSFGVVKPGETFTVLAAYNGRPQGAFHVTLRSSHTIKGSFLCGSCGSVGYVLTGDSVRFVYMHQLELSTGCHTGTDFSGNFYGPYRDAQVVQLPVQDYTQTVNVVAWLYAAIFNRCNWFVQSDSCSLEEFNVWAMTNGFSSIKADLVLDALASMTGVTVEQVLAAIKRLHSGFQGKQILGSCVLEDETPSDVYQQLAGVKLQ

| Structure (SMILES) | CC50 (in vitro) [µM] | IC50 (mature MHV M^pro) [µM] | IC50 (mature SARSCoV2 M^pro) [µM] |
| --- | --- | --- | --- |
| CC(C)C[C@H](NC(=O)OCc1ccccc1)C(=O)N[C@@H](C[C@@H]1CCNC1=O)C(O)S(=O)(=O)O (some centres unmarked) [GC-376] | > 100 | – | – |
| CC(C)(C)NC(=O)N[C@H](C(=O)N1C[C@H]2[C@@H]([C@H]1C(=O)NC(CC1CCC1)C(=O)C(N)=O)C2(C)C)C(C)(C)C (some centres unmarked) [boceprevir] | > 100 | 15 ± 7 | – |
| CC(C)(C)NC(=O)N[C@H](C(=O)N1C[C@@H]2CCC[C@@H]2[C@H]1C(=O)N[C@@H](C[C@@H]1CCNC1=O)C(=O)C(N)=O)C(C)(C)C [ML1100] | > 100 | 0.301 ± 0.152 | 0.147 ± 0.008 |
| CC(C)(C)NC(=O)N[C@H](C(=O)N1C[C@H]2[C@@H]([C@H]1C(=O)N[C@@H](C[C@@H]1CCNC1=O)C(=O)C(N)=O)C2(C)C)C(C)(C)C [ML1000] | > 100 | 0.13 ± 0.025 | – |
